Measured values from patent US7569337B2, “Coumarines useful as biomarkers” (Novartis AG, priority 2002, dated 2009).

- melting point: 290 °C (dec.)
SMILES: O=c1oc2cc3c(cc2cc1-c1cn2cc(Cl)ccc2n1)CCCN3CCF [Example 2, 3-(6-Chloro-imidazo[1,2-a]pyridin-2-yl)-8-(2-fluoro-ethyl)-5,6,7,8-tetrahydro-1-oxa-8-aza-anthracen-2-one]
